Test systems include MDA-N; MDA-MB-231; HL-60; COLO 205; U-251; SF-268; SK-MEL-28; HCT-116; OVCAR-4; SK-MEL-2; IGROV-1; HCC 2998; M14; UO-31; 786-0; PC-3; MDA-MB-435; UACC-257; SF-295; SR.
Common to all, as to assay: NCI-60 cell line screen, 48 h

The structures appear in SMILES notation.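 Where inhibition never reached the appropriate level, the endpoint shown equals the highest concentration tested. Otherwise, values were interpolated linearly from a five-concentration, 48-hour dose response in 96-well plates. Abbreviation: GI50, concentration required for 50% inhibition of growth.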 Activity calls are given as the source filed them. Cut-off read from the data, not from the text of the source: active = GI50 up to about 1.1 µM and inactive = higher.

Take `Cc1[nH]n(-c2ncc(C(=O)O)c(=O)[nH]2)c(=O)c1CCO`: the GI50 is > 100 µM (inactive) in the test on MDA-N; > 100 µM (inactive) with MDA-MB-231; > 100 µM (inactive) in the test on HL-60; > 88.9 µM (inactive) in the test on COLO 205; > 100 µM (inactive) in the test on U-251; > 100 µM (inactive) with SF-268. For the same molecule, the GI50 with SK-MEL-28 is > 100 µM (inactive); in the test with HCT-116, > 100 µM (inactive); in the test with OVCAR-4, > 100 µM (inactive); in the test on SK-MEL-2 it was > 100 µM (inactive); with IGROV-1, > 100 µM (inactive); in the test with HCC 2998, > 58.9 µM (inactive). Also, the GI50 in the test on M14, in the test with UO-31, in the test with 786-0, in the test on PC-3, in the test on MDA-MB-435 and in the test on UACC-257 was > 100 µM (inactive) in each case. Further, the results for the GI50 in the test with SF-295 and with SR were > 100 µM (inactive) and > 37 µM (inactive), respectively.
Take `C=CCN1C[C@H](C)N([C@H](c2ccc(C(=O)NC(CC)CC)cc2)c2cccc(OC)c2)C[C@H]1C`: the GI50 in the test with MDA-N was 37.3 µM (inactive); in the test on MDA-MB-231, 28 µM (inactive); in the test with HL-60, 10.9 µM (inactive); with COLO 205 it was 17.9 µM (inactive); in the test with U-251, 34 µM (inactive); in the test with SF-268, 83.2 µM (inactive). Besides, the GI50 with HCT-116 is 21.6 µM (inactive); with OVCAR-4, 46 µM (inactive); with SK-MEL-2 it was 20.9 µM (inactive); in the test with IGROV-1, 65.3 µM (inactive); in the test with HCC 2998, 29.2 µM (inactive); with M14 it was 17.7 µM (inactive). In addition, the GI50 in the test with UO-31 is 21.2 µM (inactive); with 786-0, 34.6 µM (inactive); in the test with PC-3, 31.1 µM (inactive); in the test on MDA-MB-435 it was 35.6 µM (inactive); in the test with UACC-257 it was 26.2 µM (inactive); with SF-295, 39.8 µM (inactive). For the same molecule, the GI50 with SR was 23.7 µM (inactive).
Take `CCc1nc(N)nc(N)c1-c1ccc([N+](C)(C)C)cc1`: the GI50 with MDA-N, in the test on MDA-MB-231, in the test on HL-60, in the test with COLO 205, with U-251 and in the test on SF-268 was > 100 µM (inactive) each time. Also, the GI50 in the test with SK-MEL-28, in the test on HCT-116, in the test with OVCAR-4, in the test on SK-MEL-2, in the test on IGROV-1 and in the test with HCC 2998 was > 100 µM (inactive) in each case. Moreover, the GI50 in the test on M14, with UO-31, in the test on 786-0, in the test on PC-3, in the test on MDA-MB-435 and with UACC-257 was > 100 µM (inactive) throughout. Also, the GI50 in the test on SF-295 and in the test on SR was > 100 µM (inactive) throughout.
With `CC1(C)N=C(/C(Cl)=[N+](/[O-])C(=O)c2ccc(F)cc2)C(C)(C)N1O`, the GI50 is 16.4 µM (inactive) in the test with MDA-N; 16.8 µM (inactive) with MDA-MB-231; 10.8 µM (inactive) in the test on HL-60; 18.5 µM (inactive) with COLO 205; > 10 µM (inactive) with U-251; 16.9 µM (inactive) with SF-268. Further, the GI50 in the test on SK-MEL-28 was 15.8 µM (inactive); in the test with HCT-116, 16.4 µM (inactive); in the test on OVCAR-4 it was 17.9 µM (inactive); in the test on SK-MEL-2, 17.1 µM (inactive); in the test with IGROV-1, 19.5 µM (inactive); with HCC 2998, 18.8 µM (inactive). Also, the GI50 was 16.1 µM (inactive) in the test with M14; 21 µM (inactive) with UO-31; 14.6 µM (inactive) with 786-0; 17.5 µM (inactive) with PC-3; 21.4 µM (inactive) in the test with MDA-MB-435; 17.1 µM (inactive) in the test with UACC-257. In addition, the results for the GI50 in the test with SF-295 and in the test with SR were 31.8 µM (inactive) and 4.16 µM (inactive), respectively.
As for `Cc1cc(=O)oc2c(C3=NN(C=O)C(c4ccccc4)C3)c(O)ccc12` (configuration not stated), the GI50 is > 54.8 µM (inactive) in the test with MDA-N; 59.6 µM (inactive) in the test with MDA-MB-231; > 100 µM (inactive) in the test on HL-60; > 71.8 µM (inactive) in the test on COLO 205; 32.7 µM (inactive) with U-251; 31.6 µM (inactive) in the test with SF-268. The GI50 with SK-MEL-28 was > 100 µM (inactive); in the test with HCT-116 it was 81.1 µM (inactive); in the test on OVCAR-4, > 64.1 µM (inactive); in the test on SK-MEL-2, 52.5 µM (inactive); with IGROV-1 it was 70 µM (inactive); in the test with HCC 2998 it was > 87.7 µM (inactive). Moreover, the GI50 with M14 was 51.9 µM (inactive); in the test on UO-31, 64.3 µM (inactive); in the test with 786-0 it was 26.1 µM (inactive); with PC-3, > 74.1 µM (inactive); in the test on MDA-MB-435 it was > 65.9 µM (inactive); with UACC-257 it was 83.4 µM (inactive). Besides, the GI50 in the test on SF-295 was 10 µM (inactive); with SR, 60.1 µM (inactive).
In the case of `COc1ccccc1NC1Oc2cc3c(cc2C(c2cc(OC)c(OC)c(OC)c2)C1C)OCO3` (configuration not stated), the GI50 with MDA-N was 0.358 µM (active); in the test on MDA-MB-231 it was 1.78 µM (inactive); in the test with HL-60, 0.612 µM (active); in the test with COLO 205 it was 1.95 µM (inactive); in the test with U-251, 2.92 µM (inactive); with SF-268, 3.62 µM (inactive). For the same molecule, the GI50 in the test with SK-MEL-28 was > 25.1 µM (inactive); with HCT-116, 2.42 µM (inactive); with OVCAR-4, 6.37 µM (inactive); with SK-MEL-2, 5.85 µM (inactive); with IGROV-1, 3.24 µM (inactive); in the test on HCC 2998, 3.04 µM (inactive). Besides, the GI50 was 3.26 µM (inactive) in the test with M14; 3.58 µM (inactive) with UO-31; 3.5 µM (inactive) with 786-0; 1.12 µM (active) in the test on PC-3; 0.242 µM (active) in the test on MDA-MB-435; 8.17 µM (inactive) in the test on UACC-257. Moreover, the results for the GI50 with SF-295 and in the test with SR were 0.689 µM (active) and 1.03 µM (active), respectively.
Take `CN1C/C(=C\c2cccs2)C2=NC(=S)NC(c3cccs3)C2C1` (configuration not stated): the GI50 with MDA-N was 66.1 µM (inactive); in the test on MDA-MB-231 it was > 100 µM (inactive); with HL-60, 2.22 µM (inactive); in the test on COLO 205 it was 31.8 µM (inactive); with U-251, > 100 µM (inactive); in the test on SF-268, 61.4 µM (inactive). Moreover, the GI50 in the test on SK-MEL-28 was 93.3 µM (inactive); with HCT-116, 64.4 µM (inactive); with OVCAR-4, 29.5 µM (inactive); in the test on SK-MEL-2, > 100 µM (inactive); in the test with IGROV-1 it was 46.3 µM (inactive); in the test on HCC 2998 it was 93.8 µM (inactive). In addition, the GI50 is 55.2 µM (inactive) with M14; 38.3 µM (inactive) in the test with UO-31; > 100 µM (inactive) with 786-0; > 100 µM (inactive) in the test with PC-3; 43.9 µM (inactive) in the test on MDA-MB-435; 36.6 µM (inactive) in the test on UACC-257. Also, the GI50 with SF-295 is 42.8 µM (inactive); in the test with SR it was 18.2 µM (inactive).
As for `CCNC(=O)Cc1nc2c(N)ncnc2n1C1OC(CO)C(O)C1O` (configuration not stated), the GI50 in the test on MDA-N is > 100 µM (inactive); in the test on MDA-MB-231, > 100 µM (inactive); in the test on HL-60, 91.4 µM (inactive); in the test with COLO 205, 74 µM (inactive); in the test with U-251 it was > 100 µM (inactive); with SF-268, > 100 µM (inactive). Further, the GI50 in the test on SK-MEL-28 was > 100 µM (inactive); in the test with HCT-116 it was > 100 µM (inactive); in the test on OVCAR-4, 23.5 µM (inactive); in the test on SK-MEL-2, 48.6 µM (inactive); in the test with IGROV-1 it was > 100 µM (inactive); with HCC 2998 it was 95.7 µM (inactive). Moreover, the GI50 in the test on M14, with UO-31, in the test on 786-0, in the test with PC-3, in the test with MDA-MB-435 and in the test on UACC-257 was > 100 µM (inactive) throughout. The GI50 with SF-295 and in the test with SR was > 100 µM (inactive) in each case.
As for `O=C1CCC2(CC1CC(Sc1ccccc1)Sc1ccccc1)OCCO2` (configuration not stated), the GI50 with MDA-N was 42.4 µM (inactive); in the test with MDA-MB-231 it was 83.4 µM (inactive); with HL-60 it was 19.8 µM (inactive); with COLO 205, 25.2 µM (inactive); with U-251 it was 41.9 µM (inactive); in the test on SF-268, 31.2 µM (inactive). The GI50 is 85.9 µM (inactive) in the test on SK-MEL-28; 56.1 µM (inactive) in the test with OVCAR-4; 24.9 µM (inactive) with SK-MEL-2; 74.3 µM (inactive) in the test with IGROV-1; 44.1 µM (inactive) with HCC 2998; 43.9 µM (inactive) in the test with M14. The GI50 in the test on UO-31 was 36.1 µM (inactive); in the test on 786-0, 45.7 µM (inactive); in the test on PC-3 it was 25.2 µM (inactive); in the test with MDA-MB-435, 36.7 µM (inactive); in the test with UACC-257, 36.8 µM (inactive); in the test with SF-295, 52.6 µM (inactive). Further, the GI50 with SR was 26.4 µM (inactive).
Take `CC(C)[C@]12O[C@H]1[C@@H]1O[C@]13[C@]1(O[C@H]1C[C@H]1C4=C(CC[C@@]13C)C(=O)OC4)[C@@H]2O` [TRIPTOLIDE]: the GI50 is 0.00759 µM (active) in the test with MDA-N; 0.0145 µM (active) in the test with MDA-MB-231; 0.00667 µM (active) in the test on HL-60; 0.00776 µM (active) with COLO 205; 0.061 µM (active) in the test with U-251; 0.0249 µM (active) with SF-268. Also, the GI50 in the test on SK-MEL-28 is 0.00637 µM (active); in the test with HCT-116, 0.00258 µM (active); in the test on OVCAR-4, 0.00792 µM (active); in the test on SK-MEL-2, 0.00643 µM (active); in the test on IGROV-1 it was 0.00713 µM (active); in the test on HCC 2998, 0.0183 µM (active). Besides, the GI50 with M14 is < 0.0136 µM (active); in the test on UO-31, 0.0124 µM (active); in the test with 786-0, 0.0169 µM (active); with PC-3 it was 0.0181 µM (active); in the test with MDA-MB-435, 0.00693 µM (active); in the test with SF-295, 0.0279 µM (active). The GI50 with SR was 0.0173 µM (active).

The record behind these values is ChEMBL document CHEMBL1201862, “PubChem BioAssay data set” (2004).
